What was measured:
[1] = system: Human immunodeficiency virus 1; test: Antiviral activity against HIV1 R8 harboring reverse transcriptase infected in human MT4 cells assessed as inhibition of viral spread in presence of 50% normal human serum; format: functional; conditions: Human immunodeficiency virus 1, R8, MT4; read-out: CIC95
[2] = system: Human immunodeficiency virus 1; test: Antiviral activity against HIV1 R8 harboring wild type reverse transcriptase infected in human MT4 cells assessed as inhibition of viral spread in presence of 10% fetal bovine serum; format: functional; conditions: Human immunodeficiency virus 1, R8, MT4; read-out: CIC95
[3] = target: Human immunodeficiency virus type 1 reverse transcriptase (Human immunodeficiency virus 1, UniProt Q72547); test: Inhibition of wild type HIV1 reverse transcriptase by SPA assay
[4] = target: Human immunodeficiency virus type 1 reverse transcriptase (Human immunodeficiency virus 1, UniProt Q72547, K103N); test: Inhibition of HIV1 reverse transcriptase K103N mutant by SPA assay
[5] = target: T1, Human immunodeficiency virus type 1 reverse transcriptase (Human immunodeficiency virus 1, UniProt Q72547, Y181C); test: Inhibition of HIV1 reverse transcriptase Y181C mutant by electrochemiluminescent assay
[6] = system: Human immunodeficiency virus 1; test: Antiviral activity against HIV1 R8 harboring reverse transcriptase K103N mutant infected in human MT4 cells assessed as inhibition of viral spread in presence of 10% fetal bovine serum; format: functional; conditions: Human immunodeficiency virus 1, R8, MT4; read-out: CIC95
[7] = system: Human immunodeficiency virus 1; test: Antiviral activity against HIV1 R8 harboring reverse transcriptase Y181C mutant infected in human MT4 cells assessed as inhibition of viral spread in presence of 10% fetal bovine serum; format: functional; conditions: Human immunodeficiency virus 1, R8, MT4; read-out: CIC95
[8] = target: T1, Human immunodeficiency virus type 1 reverse transcriptase; test: Inhibition of HIV1 reverse transcriptase Y181C mutant by SPA assay
[9] = system: Human immunodeficiency virus 1; test: Antiviral activity against HIV1 R8 harboring reverse transcriptase K103N/Y181C double mutant infected in human MT4 cells assessed as concentration required to inhibit >95% viral spread in presence of 10% FBS; format: functional; conditions: Human immunodeficiency virus 1, R8, MT4; read-out: CIC95

Row | SMILES | IC95 [1] | IC95 [2] | Ki [3] | Ki [4] | Ki [5] | IC95 [6] | IC95 [7] | Ki [8] | IC95 [9]
1 | N#Cc1ccc(-c2cc(COc3ccc(Cl)c(Oc4cc(Cl)cc(C#N)c4)c3)n[nH]2)cc1 | 0.922 µM | 0.034 µM | 0.0007 µM | 0.0036 µM | 0.012 µM | 0.307 µM | – | – | –
2 | N#Cc1cc(Cl)cc(Oc2cc(OCc3cc(-c4cc[n+]([O-])cc4)[nH]n3)ccc2Cl)c1 | 0.307 µM | 0.044 µM | 0.0053 µM | 0.021 µM | – | 0.307 µM | 0.5 µM | 0.046 µM | –
3 | N#Cc1cc(Cl)cc(Oc2cc(OCc3cc[nH]n3)ccc2Cl)c1 | 8.3 µM | 0.922 µM | 0.039 µM | 0.179 µM | – | 8.3 µM | – | 0.14 µM | –
4 | N#Cc1cc(Cl)cc(Oc2cc(OCc3nc(-c4ccccc4)no3)ccc2Cl)c1 | – | – | 0.015 µM | 0.056 µM | – | – | – | – | –
5 | N#Cc1cc(Cl)cc(Oc2cc(OCc3n[nH]c(-c4ccncc4)c3Cl)ccc2Cl)c1 | 0.307 µM | 0.097 µM | 0.0005 µM | 0.0007 µM | 0.0005 µM | 0.102 µM | 0.278 µM | – | –
6 | COc1ccc(-c2noc(COc3ccc(Cl)c(Oc4cc(Cl)cc(C#N)c4)c3)n2)cc1 | > 8.3 µM | > 8.3 µM | 0.0021 µM | 0.03 µM | – | – | – | – | –
7 | N#Cc1cc(Cl)cc(Oc2cc(OCc3nc(-c4ccc(Cl)cc4)no3)ccc2Cl)c1 | > 8.3 µM | > 8.3 µM | 0.031 µM | 0.13 µM | – | – | – | – | –
8 | N#Cc1cc(Cl)cc(Oc2cc(OCc3cc(-c4ccccc4)[nH]n3)ccc2Cl)c1 | 0.924 µM | 0.222 µM | 0.0009 µM | 0.0024 µM | – | 0.924 µM | 0.833 µM | 0.0125 µM | –
9 | N#Cc1cc(Cl)cc(Oc2cc(OCc3cn(-c4ccccc4)nn3)ccc2Cl)c1 | – | – | 0.068 µM | 0.946 µM | – | – | – | – | –
10 | N#Cc1cc(Cl)cc(Oc2cc(OCc3cc(-c4ccccn4)[nH]n3)ccc2Cl)c1 | 0.307 µM | 0.097 µM | 0.0032 µM | 0.0096 µM | – | 0.307 µM | > 0.833 µM | 0.0089 µM | –
11 | N#Cc1cc(Cl)cc(Oc2cc(OCc3nc(-c4ccccn4)no3)ccc2Cl)c1 | > 8.3 µM | > 8.3 µM | 0.029 µM | 0.069 µM | – | – | – | – | –
12 | N#Cc1cc(Cl)cc(Oc2cc(OCc3n[nH]c(-c4ccccn4)c3Cl)ccc2Cl)c1 | 0.922 µM | 0.922 µM | 0.0004 µM | 0.0005 µM | 0.0006 µM | 2.77 µM | – | – | –
13 | N#Cc1cc(Cl)cc(Oc2cc(OCc3cc(-c4cccnc4)[nH]n3)ccc2Cl)c1 | 0.307 µM | 0.032 µM | 0.0011 µM | 0.0052 µM | – | 0.307 µM | 0.278 µM | 0.0067 µM | –
14 | N#Cc1cc(Cl)cc(Oc2cc(OCc3cc(-c4cccs4)[nH]n3)ccc2Cl)c1 | 0.307 µM | 0.168 µM | 0.0016 µM | 0.0046 µM | – | 0.922 µM | 0.178 µM | 0.0495 µM | –
15 | Cn1cc(-c2cc(COc3ccc(Cl)c(Oc4cc(Cl)cc(C#N)c4)c3)n[nH]2)cn1 | 0.307 µM | 0.032 µM | 0.0007 µM | 0.0042 µM | 0.003 µM | 0.102 µM | 0.278 µM | – | –
16 | N#Cc1cc(Cl)cc(Oc2cc(OCc3nnc(-c4ccc(Cl)cc4)o3)ccc2Cl)c1 | 0.83 µM | 2.78 µM | 0.0049 µM | 0.011 µM | – | – | – | – | –
17 | N#Cc1cc(Cl)cc(Oc2cc(OCc3ncc(-c4ccc(Cl)cc4)o3)ccc2Cl)c1 | 0.277 µM | 0.926 µM | 0.0021 µM | 0.0044 µM | – | – | – | – | –
18 | N#Cc1cc(Cl)cc(Oc2cc(OCc3n[nH]cc3-c3ccccc3)ccc2Cl)c1 | > 8.3 µM | 8.3 µM | 0.46 µM | > 0.34 µM | – | – | – | > 3 µM | –
19 | N#Cc1cc(Cl)cc(Oc2cc(OCc3cc(-c4ccccc4)no3)ccc2Cl)c1 | > 8.3 µM | > 8.3 µM | 0.031 µM | 0.115 µM | – | > 8.33 µM | – | 0.763 µM | –
20 | N#Cc1cc(Cl)cc(Oc2cc(OCc3cc(-c4ccccc4)on3)ccc2Cl)c1 | 8.33 µM | 0.926 µM | 0.0026 µM | 0.0055 µM | – | 2.78 µM | 0.833 µM | 0.0204 µM | –
21 | N#Cc1cc(Cl)cc(Oc2cc(OCc3cc(-c4ccco4)[nH]n3)ccc2Cl)c1 | 0.922 µM | 0.097 µM | 0.0003 µM | 0.01 µM | – | 0.922 µM | 0.833 µM | 0.0015 µM | –
22 | N#Cc1cc(Cl)cc(Oc2cc(OCc3n[nH]c(-c4ccc(-c5nnn[nH]5)cc4)c3Cl)ccc2Cl)c1 | > 8.33 µM | 2.78 µM | 0.0003 µM | 0.0007 µM | 0.0006 µM | 8.33 µM | – | – | –
23 | O=C1Nc2ccc(Cl)cc2[C@@](C#CC2CC2)(C(F)(F)F)O1 [EFAVIRENZ] | 0.038 µM | 0.0043 µM | – | – | – | 0.232 µM | 0.008 µM | – | 0.272 µM
24 | COc1ccc(-c2nnc(COc3ccc(Cl)c(Oc4cc(Cl)cc(C#N)c4)c3)o2)cc1 | 0.926 µM | 0.926 µM | 0.0052 µM | 0.0093 µM | – | – | – | – | –

— ChEMBL document CHEMBL1800064, “Biaryl ethers as potent allosteric inhibitors of reverse transcriptase and its key mutant viruses: aryl substituted pyrazole as a surrogate for the pyrazolopyridine motif” (Bioorg Med Chem Lett, 2010)
